# Results reported in patent US20210317071A1, “PH-RESPONSIVE LIPIDS” (University of KwaZulu-Natal, priority 2016, published 2021).
# Like-named read-outs stand apart in the source and are kept apart here.
# What was measured:
# shaved rat skin = type: in vitro ADME, Wistar rats
# Text: All the experiments performed using animals were approved by Animal Research Ethics committee of the University of KwaZulu-Natal. In vivo study, the protocol was approved by Animal Research Ethics committee of the University of KwaZulu-Natal. The protocol approval numbers for in vivo skin infection model and transdermal permeation studies were AREC/104/015PD and AREC/054/14/Animal respectively. BALB/c mice and Wistar rats were used for in vivo skin infection model and transdermal permeation study respectively. Animals used in the study were procured from Biomedical Resource Unit of University of KwaZulu-Natal, Westville, Durban, South Africa.
# All the intermediate, ester derivatives (MSAPE, MOAPE, MLAPE, MLLAPE, DSAPE, DOAPE, DLAPE, DLLAPE, TSAPE, TOAPE, TLAPE and TLLAPE) were evaluated as potential CPEs for transdermal drug delivery using tenofovir (TNF) as a model drug. The experiments were performed on shaved rat skin using Franz diffusion cells. TNF gels were prepared using hydroxypropyl methyl cellulose, milli-Q water and 1% w/w of compounds of formula 1. The permeability of TNF in the absence of enhancers was performed as a control. […] TNF was able to permeate the skin without any permeation enhancer with a steady state flux value 040.91±04.93 μg cm^−2 h^−1 (Table 6).
# [1] = In-vitro VCM release from liposomes as a function of pH; type: physicochemical
# Description: In-vitro drug release of VCM from the pH-responsive liposomes of the invention is illustrated in FIG. 6. At all-time intervals, VCM release at acidic pH (6.5) was higher than at physiological pH of 7.4. […] For further confirmation, the mean dissolution time (MDT 90%) for 90% of drug release was calculated from in-vitro release data. […] The MDT value is inversely proportional to the release rate, i.e. lower the MDT higher the release rate and vice versa. […] The higher drug release rate at the acidic environment from liposomes can be attributed to the alteration in the lipid bilayer orientation and permeability caused by conformational changes at the head group and hydrophobic tails of the PH-responsive lipid at low pH.
# [2] = test system: Methicillin-resistant Staphylococcus aureus (MRSA); experiment: In-vitro antibacterial activity, MIC by broth dilution; type: cell-based
# Description: (§1) The minimum inhibitory concentration (MIC) values for VCM loaded liposomes were determined against Staphylococcus aureus (SA) and Methicillin-resistant Staphylococcus aureus (MRSA) using broth dilution method (Materials Science and Engineering: C, Volume 61, 2016, Pages 616-630). The stock bacterial cultures were grown in Mueller-Hinton Broth (MHB) 24 h before the test at 37° C.
# (§2) Bacterial suspensions were prepared equal to 1.5×10^8 CFU ml^−1 as half mcFarland. Serial dilutions of VCM loaded liposomal formulations were prepared in MHB broth then added to the bacterial culture, mixed properly and incubated at 37° C. for 24 hours. […] The study continued for four days to determine the sustained release activity of encapsulated VCM. Experiments were performed in triplicate and drug-free liposomes, bare VCM solution and VCM loaded liposomes without Ph-responsive lipid were used as controls.
# [3] = test system: Staphylococcus aureus (SA); experiment: as above; type: cell-based; details: S. aureus
# Description: as §1, §2
# [4] = both pH values, study over four days
# [5] = pH 6.5, DAY - I (24 h), listed as bare VCM
# [6] = pH 7.4, DAY - I (24 h), listed as bare VCM
SMILES,"Cumulative amount of TNF permeated (shaved rat skin; Wistar, rat, 6 h, 1 % w/w)","ER (enhancement ratio) (shaved rat skin; Wistar, rat, 6 h, 1 % w/w)","Permeability (P × 10^−2) of TNF (shaved rat skin; Wistar, rat, 6 h, 1 % w/w)",other results
"CCCCCCCC/C=C/CCCCCCCC(=O)OCC(COC(=O)CCCCCCC/C=C/CCCCCCCC)(COC(=O)CCCCCCC/C=C/CCCCCCCC)NCCC(=O)OC(C)(C)C [TOAPE, 2-((3-(tert-butoxy)-3-oxopropyl)amino)-2-((((Z)-octadec-9-enoyl)oxy)methyl)propane-1,3-diyl(9Z,9′Z)-bis(octadec-9-enoate)]",342.3 ± 26.94 μg cm^−2,1.50,0.306 ± 0.02,–
"CCCCC/C=C\C/C=C\CCCCCCCC(=O)OCCNCCC(=O)OC(C)(C)C [MLAPE, 2-((3-(tert-butoxy)-3-oxopropyl)amino)ethyl (9Z,12Z)-octadeca-9,12-dienoate]",574.97 ± 74.09 μg cm^−2,2.25,0.460 ± 0.06,–
"CCCCCCCC/C=C\CCCCCCCC(=O)OCC(COC(=O)CCCCCCC/C=C\CCCCCCCC)NCCC(=O)OC(C)(C)C [DOAPE, 2-((3-(tert-butoxy)-3-oxopropyl)amino)propane-1,3-diyl dioleate]",424.95 ± 59.84 μg cm^−2,1.71,0.350 ± 0.05,–
"CC/C=C\C/C=C\C/C=C\CCCCCCCC(=O)OCCNCCC(=O)OC(C)(C)C [MLLAPE, 2-((3-(tert-butoxy)-3-oxopropyl)amino)ethyl (9Z,12Z,15Z)-octadeca-9,12,15-trienoate]",945.88 ± 44.93 μg cm^−2,3.70,0.758 ± 0.04,–
"CC/C=C\C/C=C\C/C=C\CCCCCCCC(=O)OCC(COC(=O)CCCCCCC/C=C\C/C=C\C/C=C\CC)NCCC(=O)OC(C)(C)C [DLLAPE, 2-((3-(tert-butoxy)-3-oxopropyl)amino)propane-1,3-diyl (9Z,9′Z,12Z,12′Z,15Z,15′Z)-bis(octadeca-9,12,15-trienoate)]",400.37 ± 18.92 μg cm^−2,1.65,0.337 ± 0.01,–
"CCCCC/C=C\C/C=C\CCCCCCCC(=O)OCC(COC(=O)CCCCCCC/C=C\C/C=C\CCCCC)NCCC(=O)OC(C)(C)C [DLAPE, 2-((3-(tert-butoxy)-3-oxopropyl)amino)propane-1,3-diyl (9Z,9′Z,12Z,12′Z)-bis(octadeca-9,12-dienoate)]",1074.62 ± 61.12 μg cm^−2,3.95,0.809 ± 0.05,–
"CCCCCCCCCCCCCCCCCC(=O)OCC(COC(=O)CCCCCCCCCCCCCCCCC)NCCC(=O)OC(C)(C)C [DSAPE, 2-((3-(tert-butoxy)-3-oxopropyl)amino)propane-1,3-diyl distearate]",336.1 ± 25.67 μg cm^−2,1.40,0.286 ± 0.02,–
"CN[C@H](CC(C)C)C(=O)N[C@H]1C(=O)N[C@@H](CC(N)=O)C(=O)N[C@H]2C(=O)N[C@H]3C(=O)N[C@H](C(=O)N[C@H](C(=O)O)c4cc(O)cc(O)c4-c4cc3ccc4O)[C@H](O)c3ccc(c(Cl)c3)Oc3cc2cc(c3O[C@@H]2O[C@H](CO)[C@@H](O)[C@H](O)[C@H]2O[C@H]2C[C@](C)(N)[C@H](O)[C@H](C)O2)Oc2ccc(cc2Cl)[C@H]1O [Bare VCM, Vancomycin]",–,–,–,"MDT90% Mean dissolution time calculated for 90% of VCM release ([1]; pH 5.5): 6.064 h; MDT90% Mean dissolution time calculated for 90% of VCM release ([1]; pH 6.5): 4.173 h; MDT90% Mean dissolution time calculated for 90% of VCM release ([1]; pH 7.4): 2.690 h; time up to which antibacterial activity was exhibited [2, 4]: ≤ 24 h; MIC ([2]; pH 6.5, DAY - I (24 h)): 15.62 mg/L; MIC [2, 5]: 0.98 mg/L; MIC ([2]; pH 7.4, DAY - I (24 h)): 7.81 mg/L; MIC [2, 6]: 0.98 mg/L; time up to which antibacterial activity was exhibited [3, 4]: ≤ 24 h; MIC ([3]; pH 6.5, DAY - I (24 h)): 7.81 mg/L; MIC [3, 5]: 1.95 mg/L; MIC ([3]; pH 7.4, DAY - I (24 h)): 3.91 mg/L; MIC [3, 6]: 8.79 mg/L"
"C[C@H](Cn1cnc2c(N)ncnc21)OCP(=O)(O)O [TNF, tenofovir, reference compound]",–,–,–,Cumulative amount of TNF permeated (shaved rat skin): 253.10±23.84 μg cm^−2
"CCCCCCCC/C=C\CCCCCCCC(=O)OCCNCCC(=O)OC(C)(C)C [MOAPE, 2-((3-(tert-butoxy)-3-oxopropyl)amino)ethyl oleate]",1594.06 ± 198.92 μg cm^−2,5.58,1.142 ± 0.16,–
"CCCCCCCCCCCCCCCCCC(=O)OCCNCCC(=O)OC(C)(C)C [MSAPE, 2-((3-(tert-butoxy)-3-oxopropyl)amino)ethyl stearate]",407.12 ± 66.51 μg cm^−2,1.55,0.317 ± 0.06,–
"CCCCCCCCCCCCCCCCCC(=O)OCC(COC(=O)CCCCCCCCCCCCCCCCC)(COC(=O)CCCCCCCCCCCCCCCCC)NCCC(=O)OC(C)(C)C [TSAPE, 2-((3-(tert-butoxy)-3-oxopropyl)amino)-2-((stearoyloxy)methyl) propane-1,3-diyl distearate]",531.70 ± 23.87 μg cm^−2,2.09,0.428 ± 0.02,–
